In ChEMBL document CHEMBL3217558 (Medchemcomm, 2012):

How the values were obtained:
[1] = biological target: Voltage-gated inwardly rectifying potassium channel KCNH2 (Homo sapiens, UniProt Q12809)
[2] = biological target: Hepatocyte growth factor receptor (Homo sapiens, UniProt P08581)
Sequence of Hepatocyte growth factor receptor (P08581 whole entry): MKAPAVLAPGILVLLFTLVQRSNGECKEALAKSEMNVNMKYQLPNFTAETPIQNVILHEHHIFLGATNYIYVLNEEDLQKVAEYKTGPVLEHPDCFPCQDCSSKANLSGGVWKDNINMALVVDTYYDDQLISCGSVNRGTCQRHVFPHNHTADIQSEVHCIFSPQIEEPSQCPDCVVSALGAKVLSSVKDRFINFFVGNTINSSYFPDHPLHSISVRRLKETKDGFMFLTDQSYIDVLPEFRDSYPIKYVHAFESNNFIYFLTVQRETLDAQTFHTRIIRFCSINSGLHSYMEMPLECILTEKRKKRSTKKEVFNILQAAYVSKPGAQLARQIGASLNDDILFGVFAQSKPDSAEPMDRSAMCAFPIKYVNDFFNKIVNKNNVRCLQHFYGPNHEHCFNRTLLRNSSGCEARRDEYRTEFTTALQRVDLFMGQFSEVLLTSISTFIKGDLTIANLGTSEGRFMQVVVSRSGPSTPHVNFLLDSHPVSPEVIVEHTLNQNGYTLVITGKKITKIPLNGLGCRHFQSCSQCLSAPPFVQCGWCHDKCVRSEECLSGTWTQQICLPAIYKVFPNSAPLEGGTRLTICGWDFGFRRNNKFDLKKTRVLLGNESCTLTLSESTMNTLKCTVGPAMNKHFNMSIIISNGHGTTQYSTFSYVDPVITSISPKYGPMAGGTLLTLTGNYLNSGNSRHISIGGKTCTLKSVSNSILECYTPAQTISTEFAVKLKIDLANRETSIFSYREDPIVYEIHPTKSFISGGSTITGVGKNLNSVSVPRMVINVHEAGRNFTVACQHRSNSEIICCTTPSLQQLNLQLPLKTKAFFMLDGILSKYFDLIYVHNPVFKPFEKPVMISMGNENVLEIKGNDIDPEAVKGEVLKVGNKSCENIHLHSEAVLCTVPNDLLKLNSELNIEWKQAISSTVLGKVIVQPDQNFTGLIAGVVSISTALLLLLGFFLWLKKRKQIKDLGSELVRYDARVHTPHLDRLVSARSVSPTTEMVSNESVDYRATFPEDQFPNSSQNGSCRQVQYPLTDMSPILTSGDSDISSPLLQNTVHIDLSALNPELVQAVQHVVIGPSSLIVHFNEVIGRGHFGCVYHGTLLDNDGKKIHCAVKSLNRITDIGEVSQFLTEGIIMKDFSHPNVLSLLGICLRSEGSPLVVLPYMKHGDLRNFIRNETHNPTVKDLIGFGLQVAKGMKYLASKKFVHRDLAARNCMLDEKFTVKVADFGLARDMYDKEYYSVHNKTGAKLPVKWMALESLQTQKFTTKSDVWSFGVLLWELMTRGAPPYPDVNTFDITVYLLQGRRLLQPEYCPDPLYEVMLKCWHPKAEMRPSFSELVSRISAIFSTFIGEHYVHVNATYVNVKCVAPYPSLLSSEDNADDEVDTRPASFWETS
Description: Inhibition of c-Met (unknown origin) using poly (Glu, Tyr) 4:1 as substrate after 60 mins by ELISA

Sequence of Voltage-gated inwardly rectifying potassium channel KCNH2 (Q12809 whole entry): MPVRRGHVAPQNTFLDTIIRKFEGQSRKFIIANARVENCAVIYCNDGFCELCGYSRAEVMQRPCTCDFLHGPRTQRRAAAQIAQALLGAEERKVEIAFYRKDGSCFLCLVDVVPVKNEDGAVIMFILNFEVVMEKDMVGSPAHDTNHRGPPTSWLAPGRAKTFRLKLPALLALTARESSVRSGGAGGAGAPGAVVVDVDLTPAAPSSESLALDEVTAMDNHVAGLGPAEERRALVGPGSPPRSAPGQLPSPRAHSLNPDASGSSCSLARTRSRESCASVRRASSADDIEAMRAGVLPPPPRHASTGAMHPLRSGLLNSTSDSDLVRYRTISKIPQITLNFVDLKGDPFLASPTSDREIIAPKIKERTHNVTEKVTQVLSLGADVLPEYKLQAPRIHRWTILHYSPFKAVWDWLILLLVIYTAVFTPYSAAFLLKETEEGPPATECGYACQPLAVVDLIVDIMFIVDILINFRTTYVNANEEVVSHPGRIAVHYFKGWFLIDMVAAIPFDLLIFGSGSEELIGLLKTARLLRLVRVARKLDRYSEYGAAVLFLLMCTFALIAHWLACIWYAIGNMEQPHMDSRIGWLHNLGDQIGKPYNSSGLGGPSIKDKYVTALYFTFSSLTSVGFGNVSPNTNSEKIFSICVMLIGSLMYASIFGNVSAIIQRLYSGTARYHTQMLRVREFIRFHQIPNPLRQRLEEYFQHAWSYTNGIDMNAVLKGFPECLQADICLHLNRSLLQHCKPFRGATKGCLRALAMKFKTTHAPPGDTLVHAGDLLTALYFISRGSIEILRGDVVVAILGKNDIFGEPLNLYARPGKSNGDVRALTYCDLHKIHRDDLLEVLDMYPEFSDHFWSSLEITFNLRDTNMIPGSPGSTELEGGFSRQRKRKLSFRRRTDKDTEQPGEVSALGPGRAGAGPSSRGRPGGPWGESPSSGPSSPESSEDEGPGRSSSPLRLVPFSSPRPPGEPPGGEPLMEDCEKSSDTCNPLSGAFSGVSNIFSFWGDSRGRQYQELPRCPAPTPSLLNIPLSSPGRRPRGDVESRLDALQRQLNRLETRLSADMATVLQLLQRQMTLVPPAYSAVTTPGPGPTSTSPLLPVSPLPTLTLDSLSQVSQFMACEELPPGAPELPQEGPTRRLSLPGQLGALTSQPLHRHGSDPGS

Row | IC50 [2] | SMILES | IC50 [1]
1 | – | CC(=O)c1cccc(CNc2cc(C(F)(F)F)cc3ncc(N4CCN(C)CC4)cc23)c1 | 93.6 µM
2 | – | CCNC(=O)Nc1cccc(CNc2cc(C(F)(F)F)cc3ncc(N4CCN(C)CC4)cc23)c1 | 81.7 µM
3 | 0.0016 µM | [2H]C(Nc1cc(C(F)(F)F)cc2ncc(N3CCN(C(C)=O)CC3)cc12)c1cccc([N+](=O)[O-])c1 (stereo not drawn) | –
